The source made the active and inactive calls. No cut-off for these calls is given here.
Experiments:
[1] = test system: SW-620; test: Induction of cell cycle arrest at sub-G1 phase in human SW620 cells assessed as increase in p21 protein expression at 5 to 10 uM incubated for 24 hrs by Western blotting analysis; assay type: functional, cell-based; conditions: dose 5-10 µM
[2] = test system: HCT-116; test: Antiproliferative activity against human HCT-116 cells assessed as inhibition of cell proliferation at 1.5 to 12.5 uM by CCK-8 assay; assay type: functional, cell-based; conditions: dose 1.5-12.5 µM, time […]
[3] = test system: HCT-116; test: Antitumor activity against human HCT-116 cells xenografted in male athymic nude BALB/c mouse assessed as tumor growth inhibition at 10 mg/kg, ip measured after 19 days relative to control; assay type: functional; conditions: HCT-116, 456 h, time 19 day, read-out: TGI
[4] = Microsomal stability in mouse liver microsomes assessed as parent compound remaining measured after 30 mins; assay type: ADME, Microsome; conditions: read-out: Stability
[5] = test system: SW-620; test: Induction of cell cycle arrest in human SW620 cells assessed as increase in sub-G1 phase cells incubated for 24 hrs by PI/RNase staining based flow cytometric analysis; assay type: functional; conditions: dose 5-10 µM
[6] = biological target: T1, 5-hydroxytryptamine receptor 2B (Homo sapiens, UniProt P41595); test: Inhibition of 5HTR2B (unknown origin)
[7] = Clearance in male mouse at 2 mg/kg, iv; assay type: ADME, organism-based; conditions: in vivo
[8] = test system: SW-620; test: Antitumor activity against human SW620 cells xenografted in male athymic nude BALB/c mouse assessed as tumor growth inhibition at 50 mg/kg, ip administered once daily relative to control; assay type: functional; conditions: read-out: TGI
[9] = biological target: T2, 5-hydroxytryptamine receptor 2C (Homo sapiens) (UniProt P28335); test: Inhibition of 5HTR2C (unknown origin) at 1 uM relative to control
T2 sequence (whole entry): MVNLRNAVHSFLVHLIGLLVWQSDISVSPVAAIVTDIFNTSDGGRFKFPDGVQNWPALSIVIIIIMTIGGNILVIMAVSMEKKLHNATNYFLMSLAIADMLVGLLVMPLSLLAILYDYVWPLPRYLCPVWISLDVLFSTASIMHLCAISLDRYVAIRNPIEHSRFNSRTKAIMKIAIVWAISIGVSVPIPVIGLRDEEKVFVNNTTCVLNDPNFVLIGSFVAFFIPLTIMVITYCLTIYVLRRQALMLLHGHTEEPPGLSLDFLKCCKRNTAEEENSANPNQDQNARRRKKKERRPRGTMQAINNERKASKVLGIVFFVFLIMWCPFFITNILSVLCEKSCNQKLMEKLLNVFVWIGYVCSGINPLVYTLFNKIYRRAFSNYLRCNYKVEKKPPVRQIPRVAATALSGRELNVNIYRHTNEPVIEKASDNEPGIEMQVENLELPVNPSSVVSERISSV

[10] = biological target: CYP2C19 (Homo sapiens, UniProt P33261); test: Inhibition of CYP2C19 (unknown origin) at 10 uM relative to control; assay type: ADME
[11] = Half life in male mouse at 2 mg/kg, iv; assay type: ADME, organism-based; conditions: in vivo
[12] = biological target: CYP3A4 (Homo sapiens, UniProt P08684); test: Inhibition of CYP3A4 (unknown origin) at 10 uM relative to control; assay type: ADME
[13] = Microsomal stability in rat liver microsomes assessed as parent compound remaining measured after 30 mins; assay type: ADME, Microsome; conditions: read-out: Stability
[14] = biological target: T3, CYP1A2 (Homo sapiens, UniProt P05177); test: Inhibition of CYP1A2 (unknown origin) at 10 uM relative to control; assay type: ADME
T3 sequence (P05177 whole entry): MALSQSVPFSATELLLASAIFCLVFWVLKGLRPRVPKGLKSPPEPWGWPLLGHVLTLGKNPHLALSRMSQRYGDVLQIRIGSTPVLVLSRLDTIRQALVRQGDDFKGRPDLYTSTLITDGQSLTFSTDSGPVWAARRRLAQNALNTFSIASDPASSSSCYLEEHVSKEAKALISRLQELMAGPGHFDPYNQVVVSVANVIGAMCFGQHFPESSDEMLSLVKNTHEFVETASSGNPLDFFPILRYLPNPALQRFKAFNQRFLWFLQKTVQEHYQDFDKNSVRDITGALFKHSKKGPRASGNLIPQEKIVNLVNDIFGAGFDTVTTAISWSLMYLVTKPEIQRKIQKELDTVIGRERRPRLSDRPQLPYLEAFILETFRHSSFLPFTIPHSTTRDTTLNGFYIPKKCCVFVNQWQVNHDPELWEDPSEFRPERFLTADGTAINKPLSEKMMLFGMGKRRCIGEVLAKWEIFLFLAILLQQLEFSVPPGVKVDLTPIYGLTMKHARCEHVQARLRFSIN

[15] = Microsomal stability in human liver microsomes assessed as parent compound remaining measured after 30 mins; assay type: ADME, Microsome; conditions: read-out: Stability
[16] = test system: RKO; test: Antiproliferative activity against human RKO cells assessed as inhibition of cell proliferation incubated for 24 to 48 hrs by CCK-8 assay; assay type: functional, cell-based; conditions: dose 1.5-12.5 µM, time 24-48 hrs
[17] = AUCt in male mouse at 2 mg/kg, iv; assay type: ADME, organism-based; conditions: in vivo
[18] = Drug concentration in male ICR mouse plasma at 10 mg/kg, ip measured after 1 hr; assay type: ADME, organism-based
[19] = test system: HCT-116; test: Induction of cell cycle arrest in human HCT-116 cells assessed as increase in sub-G1 phase cells incubated for 24 hrs by PI/RNase staining based flow cytometric analysis; assay type: functional; conditions: dose 5-10 µM
[20] = Drug concentration in male ICR mouse brain at 10 mg/kg, ip measured after 3 hr; assay type: ADME, organism-based; conditions: read-out: Ct
[21] = biological target: T1, 5-hydroxytryptamine receptor 2B; test: Inhibition of 5HTR2B (unknown origin) at 1 uM relative to control
[22] = test system: HCT-116; test: Induction of apoptosis in human HCT-116 cells assessed as upregulation of acetylated P53 protein expression at 5 to 10 uM incubated for 24 hrs by Western blotting analysis; assay type: functional, cell-based; conditions: dose 5-10 µM
[23] = Volume of distribution at steady state in male mouse at 2 mg/kg, iv; assay type: ADME, organism-based; conditions: in vivo, read-out: Vdss
[24] = test system: HCT-116; test: Induction of cell cycle arrest at sub-G1 phase in human HCT-116 cells assessed as increase in p21 protein expression at 5 to 10 uM incubated for 24 hrs by Western blotting analysis; assay type: functional, cell-based; conditions: dose 5-10 µM
[25] = test system: CCD-18Co; test: Cytotoxicity against human CCD-18Co cells assessed as inhibition of cell proliferation incubated for 24 to 48 hrs by CCK-8 assay; assay type: toxicity, cell-based; conditions: dose lower 1.5 µM, time lower 24 hrs, dose upper 12.5 µM, time upper 48 hrs
[26] = test system: HCT-116; test: Induction of apoptosis in human HCT-116 cells assessed as increase in cleaved caspase 3 expression incubated for 24 hrs by Western blotting analysis; assay type: functional, cell-based; conditions: dose 5-10 µM
[27] = test system: SW-620; test: Induction of apoptosis in human SW620 cells assessed as increase in cleaved caspase 3 expression incubated for 24 hrs by Western blotting analysis; assay type: functional, cell-based; conditions: dose 5-10 µM
[28] = biological target: hERG (KCNH2) (Homo sapiens, UniProt Q12809); test: Inhibition of hERG at 10 uM relative to control; assay type: toxicity
[29] = test system: HCT-116; test: Induction of apoptosis in human HCT-116 cells assessed as upregulation of total P53 protein expression at 5 to 10 uM incubated for 24 hrs by Western blotting analysis; assay type: functional, cell-based; conditions: dose 5-10 µM

T1 sequence (P41595 whole entry): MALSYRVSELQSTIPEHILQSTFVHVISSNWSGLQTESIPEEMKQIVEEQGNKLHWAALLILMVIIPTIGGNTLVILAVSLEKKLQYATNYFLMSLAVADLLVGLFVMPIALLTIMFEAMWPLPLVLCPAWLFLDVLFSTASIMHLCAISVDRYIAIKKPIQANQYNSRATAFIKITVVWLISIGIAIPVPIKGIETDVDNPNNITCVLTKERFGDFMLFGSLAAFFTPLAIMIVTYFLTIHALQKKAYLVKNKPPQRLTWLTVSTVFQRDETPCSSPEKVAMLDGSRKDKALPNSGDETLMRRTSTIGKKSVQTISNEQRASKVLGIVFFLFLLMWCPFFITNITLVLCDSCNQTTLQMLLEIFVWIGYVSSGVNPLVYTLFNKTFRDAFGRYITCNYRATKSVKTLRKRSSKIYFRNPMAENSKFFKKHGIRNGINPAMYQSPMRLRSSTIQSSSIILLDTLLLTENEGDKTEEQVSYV
Sequence of CYP3A4 (P08684 whole entry): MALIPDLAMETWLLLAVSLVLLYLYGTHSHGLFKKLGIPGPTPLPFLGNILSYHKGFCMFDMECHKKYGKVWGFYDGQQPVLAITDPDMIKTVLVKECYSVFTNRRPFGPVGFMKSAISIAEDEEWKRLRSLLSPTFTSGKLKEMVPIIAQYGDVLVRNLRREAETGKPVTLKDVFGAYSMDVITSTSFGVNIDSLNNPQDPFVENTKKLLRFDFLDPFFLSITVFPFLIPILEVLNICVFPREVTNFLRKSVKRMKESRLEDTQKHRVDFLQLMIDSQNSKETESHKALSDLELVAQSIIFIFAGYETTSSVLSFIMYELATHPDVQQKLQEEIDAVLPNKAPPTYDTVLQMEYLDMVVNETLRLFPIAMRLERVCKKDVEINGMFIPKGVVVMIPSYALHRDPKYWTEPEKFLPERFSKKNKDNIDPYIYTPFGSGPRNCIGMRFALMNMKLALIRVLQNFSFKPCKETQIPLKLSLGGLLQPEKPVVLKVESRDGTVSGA
Sequence of hERG (KCNH2) (Q12809 whole entry): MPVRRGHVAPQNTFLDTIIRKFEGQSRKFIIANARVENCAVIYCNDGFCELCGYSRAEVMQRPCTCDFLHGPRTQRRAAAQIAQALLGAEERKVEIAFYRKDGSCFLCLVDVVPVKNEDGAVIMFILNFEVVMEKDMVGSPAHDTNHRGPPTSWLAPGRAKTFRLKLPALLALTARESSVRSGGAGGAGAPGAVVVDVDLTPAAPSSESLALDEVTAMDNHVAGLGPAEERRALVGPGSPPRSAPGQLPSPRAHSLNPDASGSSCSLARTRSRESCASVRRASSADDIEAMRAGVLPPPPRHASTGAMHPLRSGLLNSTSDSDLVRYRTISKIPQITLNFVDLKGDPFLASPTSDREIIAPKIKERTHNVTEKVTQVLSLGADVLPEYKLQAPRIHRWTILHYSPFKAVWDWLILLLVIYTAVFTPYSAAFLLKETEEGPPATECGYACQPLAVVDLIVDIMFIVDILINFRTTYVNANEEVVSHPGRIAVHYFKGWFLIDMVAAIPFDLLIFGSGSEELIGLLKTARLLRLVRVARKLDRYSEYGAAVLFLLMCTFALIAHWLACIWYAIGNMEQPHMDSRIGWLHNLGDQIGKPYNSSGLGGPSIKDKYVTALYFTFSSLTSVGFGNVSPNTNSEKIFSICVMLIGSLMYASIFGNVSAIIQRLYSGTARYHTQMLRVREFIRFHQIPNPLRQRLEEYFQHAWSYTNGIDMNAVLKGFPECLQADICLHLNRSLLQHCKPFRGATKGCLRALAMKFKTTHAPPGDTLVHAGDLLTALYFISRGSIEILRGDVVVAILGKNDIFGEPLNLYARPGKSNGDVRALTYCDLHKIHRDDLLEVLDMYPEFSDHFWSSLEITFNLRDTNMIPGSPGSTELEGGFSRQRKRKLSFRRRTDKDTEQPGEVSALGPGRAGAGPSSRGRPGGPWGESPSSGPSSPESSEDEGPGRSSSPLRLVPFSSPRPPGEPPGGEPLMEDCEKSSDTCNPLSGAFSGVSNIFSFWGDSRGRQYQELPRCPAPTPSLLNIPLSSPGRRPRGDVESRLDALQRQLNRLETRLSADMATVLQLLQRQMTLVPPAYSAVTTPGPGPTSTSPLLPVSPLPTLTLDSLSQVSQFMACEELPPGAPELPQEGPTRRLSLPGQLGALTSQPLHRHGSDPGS
Sequence of CYP2C19 (P33261 whole entry): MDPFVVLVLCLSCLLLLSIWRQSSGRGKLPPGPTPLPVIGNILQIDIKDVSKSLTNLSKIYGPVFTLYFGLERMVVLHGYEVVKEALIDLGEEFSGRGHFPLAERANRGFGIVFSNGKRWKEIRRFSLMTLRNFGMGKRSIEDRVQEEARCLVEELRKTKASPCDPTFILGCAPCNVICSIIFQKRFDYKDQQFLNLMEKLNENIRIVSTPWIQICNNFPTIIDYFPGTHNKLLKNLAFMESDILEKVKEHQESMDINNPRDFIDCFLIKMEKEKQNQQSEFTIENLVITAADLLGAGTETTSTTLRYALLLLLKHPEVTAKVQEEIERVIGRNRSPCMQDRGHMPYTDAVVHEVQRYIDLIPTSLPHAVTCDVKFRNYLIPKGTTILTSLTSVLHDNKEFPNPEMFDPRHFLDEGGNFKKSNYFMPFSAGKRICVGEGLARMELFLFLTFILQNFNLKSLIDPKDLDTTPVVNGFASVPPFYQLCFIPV

- remaining at 0.5 h [4]: > 99%
- IC50 [6]: 621 nM
- clearance [7]: 67.7 mL/min/kg
- inhibition [9]: 44%
- inhibition at 10 µM [10]: 21%
- half-life [11]: 13.9 h
- inhibition at 10 µM [12]: 9.6%
- remaining at 0.5 h [13]: 95.3%
- inhibition at 10 µM [14]: 4.6%
- remaining at 0.5 h [15]: > 99%
- AUC(0-t) [17]: 300 ng·h/mL
- concentration at 1 h [18]: 463 ng/mL
- concentration at 3 h [20]: < 0.5 ng/g
- inhibition [21]: 84.8%
- Vd [23]: 83.9 L/kg
SMILES: Cl.Cl.O=C(NCc1ccc(OCC(O)CN2CCN(c3noc4cc(F)ccc34)CC2)cc1)N(Cc1ccc(F)cc1)C1CCNCC1 (centres undefined)
- Activity [1]: Active
- Activity [2]: Time-dependent-effect
- inhibition in vivo at 10 mg/kg [3]: 53.3%
- Activity [5]: Dose-dependent-effect
- inhibition in vivo at 50 mg/kg [8]: 46.9%
- Activity [16]: Dose-dependent-effect
- Activity [19]: Dose-dependent-effect
- Activity [22]: Active
- Activity [24]: Active
- Activity [25]: Dose-dependent-effect
- Activity [26]: Dose-dependent-effect
- Activity [27]: Dose-dependent-effect
- inhibition at 10 µM [28]: 52%
- Activity [29]: Active
